# Key:
# [1] = test system: PBMCs from breast cancer patient OBCR25; experiment: proliferation assay (3H-thymidine) with h5T4 class II peptide pools and peptides; assay type: cell-based, human; conditions: PBMCs of breast cancer patient OBCR25, 6 days incubation, 3H-thymidine pulse overnight
# Protocol: FIG. 1 is a schematic diagram illustrating the proliferation assay for measuring cellular responses
# A h5T4 peptide library was produced consisting of 51 20 mer peptides overlapping by […]. Class II peptide pools containing 5 peptides per pool were incubated with PBMCs from breast cancer patients OBCR24 and OBCR25 and proliferation was measures using the assay illustrated in FIG. 1. After 6 days incubation, cells were pulsed overnight with ^3H-thymidine and incubated overnight at 37° C.
# PBMCs from OBCR25 = experiment: IFNγ ELISPOT assay after restimulation in vitro with h5T4 peptides; assay type: cell-based, human; conditions: PBMCs from OBCR25 restimulated in vitro with h5T4 peptides
# Protocol: FIG. 2 is a schematic diagram illustrating the ELISPOT assay for measuring antigen-specific IFNγ production.
# To measure antigen-specific IFNγ production, an ELISPOT assay was conducted following the general scheme illustrated in FIG. 2.
sequence,measurement,setting,value
"YRYEINADPRLTNLSSNSDV (listed as Homo sapiens) [peptide #51, extreme C-terminal 20 amino acids (401-420) of h5T4; 20 mer peptide of pool #10]",proliferative response,[1],positive response
same,IFNγ ELISPOT response,PBMCs from OBCR25,positive ELISPOT response

# Source: US7910109B2, “MHC class II epitopes of 5T4 antigen” (Oxford Biomedica (UK) Ltd., priority 2002, dated 2011)
